# Experimental data as given in paper PMC10473604 (bioRxiv, 2023).
# Tested on: HLA-A2
# Experiment: HLA-I binding assay with biotin-tagged HLA-A2 monomers
# Set-up: species or system human
# Details: in-silico predicted HLA-A2 binders not listed in Fig. 1G
row,Sequence,"HLA-A2 binding in vitro, in words"
1,GIIYIIYKL [CVB1–2-3–4-5–6_1502–1510],did not confirm as binders
2,KLPDALSQM [CVB1_150–158],did not confirm as binders
3,VIASYPWPI [CVB1–2-3–5-6_2051–2059],did not confirm as binders
4,VMGDALGSV [ZnT8_245–253],binding
